In brackets after ≈: the same amount, converted by molar mass.
What was measured:
[1] = system: HepG2; assay: Cytotoxicity against human HepG2 cells assessed as growth inhibition incubated for 68 hrs by MTT assay; assay type: functional, cell-based; settings: HepG2, 68 h
[2] = system: Staphylococcus aureus; assay: Antimicrobial activity against Staphylococcus aureus Sau 745524 assessed as inhibition of bacterial growth incubated for 16 to 18 hrs by broth micro dilution technique; assay type: functional; settings: time 16-18 hrs
[3] = system: Staphylococcus aureus; assay: Antimicrobial activity against Staphylococcus aureus Sau 6917 assessed as inhibition of bacterial growth incubated for 16 to 18 hrs by broth micro dilution technique; assay type: functional; settings: time 16-18 hrs
[4] = system: Enterococcus faecalis; assay: Antimicrobial activity against Enterococcus faecalis ATCC 29212 assessed as inhibition of bacterial growth incubated for 16 to 18 hrs by broth micro dilution technique; assay type: functional; settings: time 16-18 hrs
[5] = system: Micrococcus luteus; assay: Antimicrobial activity against Micrococcus luteus ML01 assessed as inhibition of bacterial growth incubated for 16 to 18 hrs by broth micro dilution technique; assay type: functional; settings: time 16-18 hrs
[6] = system: RKO; assay: Cytotoxicity against human RKO cells assessed as growth inhibition incubated for 68 hrs by MTT assay; assay type: functional, cell-based
[7] = system: Staphylococcus aureus; assay: Antimicrobial activity against Staphylococcus aureus CCAM 3090 assessed as inhibition of bacterial growth incubated for 16 to 18 hrs by broth micro dilution technique; assay type: functional; settings: time 16-18 hrs
[8] = system: Staphylococcus aureus; assay: Antimicrobial activity against Staphylococcus aureus Sau 16162 assessed as inhibition of bacterial growth incubated for 16 to 18 hrs by broth micro dilution technique; assay type: functional; settings: time 16-18 hrs
[9] = system: HeLa; assay: Cytotoxicity against human HeLa cells assessed as growth inhibition incubated for 68 hrs by MTT assay; assay type: functional, cell-based
[10] = system: Candida albicans; assay: Antimicrobial activity against Candida albicans assessed as inhibition of bacterial growth incubated for 16 to 18 hrs by broth micro dilution technique; assay type: functional; settings: time 16-18 hrs
[11] = system: MCF7; assay: Cytotoxicity against human MCF7 cells assessed as growth inhibition incubated for 68 hrs by MTT assay; assay type: functional, cell-based; settings: MCF7, 68 h
[12] = system: HL-60; assay: Cytotoxicity against human HL-60 cells assessed as growth inhibition incubated for 68 hrs by MTT assay; assay type: functional, cell-based; settings: HL-60, 68 h
[13] = system: BEAS-2B; assay: Cytotoxicity against human BEAS-2B cells assessed as growth inhibition incubated for 68 hrs by MTT assay; assay type: cell-based
[14] = system: Staphylococcus aureus; assay: Antimicrobial activity against Staphylococcus aureus ATCC 29213 assessed as inhibition of bacterial growth incubated for 16 to 18 hrs by broth micro dilution technique; assay type: functional; settings: time 16-18 hrs
[15] = system: L02; assay: Cytotoxicity against human L02 cells assessed as growth inhibition incubated for 68 hrs by MTT assay; assay type: cell-based; settings: L02, 68 h
[16] = system: Bacillus thuringiensis; assay: Antimicrobial activity against Bacillus thuringiensis BT01 assessed as inhibition of bacterial growth incubated for 16 to 18 hrs by broth micro dilution technique; assay type: functional; settings: time 16-18 hrs
[17] = system: Enterococcus faecium; assay: Antimicrobial activity against Enterococcus faecium ATCC 35682 assessed as inhibition of bacterial growth incubated for 16 to 18 hrs by broth micro dilution technique; assay type: functional; settings: time 16-18 hrs
[18] = system: Staphylococcus aureus; assay: Antimicrobial activity against Staphylococcus aureus Sau 718306 assessed as inhibition of bacterial growth incubated for 16 to 18 hrs by broth micro dilution technique; assay type: functional; settings: time 16-18 hrs
[19] = system: Staphylococcus aureus; assay: Antimicrobial activity against Staphylococcus aureus Sau 1862 assessed as inhibition of bacterial growth incubated for 16 to 18 hrs by broth micro dilution technique; assay type: functional; settings: time 16-18 hrs
[20] = system: A549; assay: Cytotoxicity against human A549 cells assessed as growth inhibition incubated for 68 hrs by MTT assay; assay type: functional, cell-based; settings: A549, 68 h
[21] = system: Staphylococcus aureus; assay: Antimicrobial activity against Staphylococcus aureus Sau 991 assessed as inhibition of bacterial growth incubated for 16 to 18 hrs by broth micro dilution technique; assay type: functional; settings: time 16-18 hrs

Structure (SMILES) | MIC [2] | MIC [3] | MIC [4] | MIC [5] | MIC [7] | MIC [8] | MIC [10] | MIC [14] | MIC [16] | MIC [17] | MIC [18] | MIC [19] | MIC [21] | IC50 [1] | IC50 [6] | IC50 [9] | IC50 [11] | IC50 [12] | IC50 [13] | IC50 [15] | other results
CC(C)[C@H]1C(=O)O[C@H](C)[C@H](NC(=O)c2c3nc4c(C(=O)N[C@@H]5C(=O)N[C@H](C(C)C)C(=O)N6CCC[C@H]6C(=O)N(C)CC(=O)N(C)[C@@H](C(C)C)C(=O)O[C@@H]5C)ccc(F)c4oc-3c(F)c(=O)c2N)C(=O)N[C@H](C(C)C)C(=O)N2CCC[C@H]2C(=O)N(C)CC(=O)N1C | 32 µg/mL (≈ 25.3 µM) | 32 µg/mL (≈ 25.3 µM) | 64 µg/mL (≈ 50.7 µM) | 2 µg/mL (≈ 1.58 µM) | 32 µg/mL (≈ 25.3 µM) | 32 µg/mL (≈ 25.3 µM) | 64 µg/mL (≈ 50.7 µM) | 32 µg/mL (≈ 25.3 µM) | 16 µg/mL (≈ 12.7 µM) | 4 µg/mL (≈ 3.17 µM) | 32 µg/mL (≈ 25.3 µM) | 32 µg/mL (≈ 25.3 µM) | 32 µg/mL (≈ 25.3 µM) | > 50 µM | > 50 µM | > 50 µM | 17.1 µM | > 50 µM | > 50 µM | > 50 µM | IC50 [20]: > 50 µM
CC(C)[C@H]1C(=O)O[C@H](C)[C@H](NC(=O)c2c3nc4c(C(=O)N[C@@H]5C(=O)N[C@H](C(C)C)C(=O)N6CCC[C@H]6C(=O)N(C)CC(=O)N(C)[C@@H](C(C)C)C(=O)O[C@@H]5C)ccc(Br)c4oc-3c(Br)c(=O)c2N)C(=O)N[C@H](C(C)C)C(=O)N2C[C@@H](O)C[C@H]2C(=O)N(C)CC(=O)N1C | 16 µg/mL (≈ 11.4 µM) | 32 µg/mL (≈ 22.8 µM) | 32 µg/mL (≈ 22.8 µM) | 0.5 µg/mL (≈ 0.357 µM) | 16 µg/mL (≈ 11.4 µM) | 16 µg/mL (≈ 11.4 µM) | 8 µg/mL (≈ 5.71 µM) | 16 µg/mL (≈ 11.4 µM) | 2 µg/mL (≈ 1.43 µM) | 2 µg/mL (≈ 1.43 µM) | 16 µg/mL (≈ 11.4 µM) | 16 µg/mL (≈ 11.4 µM) | 16 µg/mL (≈ 11.4 µM) | 3 µM | 1.3 µM | 2.4 µM | 2.9 µM | 0.2 µM | 0.9 µM | 3.1 µM | IC50 [20]: 53.7 µM
CC1(C)S[C@@H]2[C@H](NC(=O)[C@H](N)c3ccccc3)C(=O)N2[C@H]1C(=O)O [AMPICILLIN] | 2 µg/mL (≈ 5.72 µM) | 8 µg/mL (≈ 22.9 µM) | 32 µg/mL (≈ 91.6 µM) | 0.13 µg/mL (≈ 0.372 µM) | > 64 µg/mL | 64 µg/mL (≈ 183 µM) | 0.13 µg/mL (≈ 0.372 µM) | 1 µg/mL (≈ 2.86 µM) | 2 µg/mL (≈ 5.72 µM) | > 64 µg/mL | – | 8 µg/mL (≈ 22.9 µM) | – | – | – | – | – | – | – | – | –
CN[C@H](CC(C)C)C(=O)N[C@H]1C(=O)N[C@@H](CC(N)=O)C(=O)N[C@H]2C(=O)N[C@H]3C(=O)N[C@H](C(=O)N[C@H](C(=O)O)c4cc(O)cc(O)c4-c4cc3ccc4O)[C@H](O)c3ccc(c(Cl)c3)Oc3cc2cc(c3O[C@@H]2O[C@H](CO)[C@@H](O)[C@H](O)[C@H]2O[C@H]2C[C@](C)(N)[C@H](O)[C@H](C)O2)Oc2ccc(cc2Cl)[C@H]1O [VANCOMYCIN] | – | – | 1 µg/mL (≈ 0.69 µM) | 0.25 µg/mL (≈ 0.173 µM) | 0.25 µg/mL (≈ 0.173 µM) | 64 µg/mL (≈ 44.2 µM) | 0.25 µg/mL (≈ 0.173 µM) | – | 4 µg/mL (≈ 2.76 µM) | > 64 µg/mL | – | – | – | – | – | – | – | – | – | – | –

Further lines, with some results ahead:

MIC [2] | MIC [3] | MIC [4] | MIC [5] | MIC [7] | MIC [8] | MIC [10] | MIC [14] | MIC [16] | MIC [17] | MIC [18] | MIC [19] | MIC [21] | Structure (SMILES) | IC50 [1] | IC50 [6] | IC50 [9] | IC50 [11] | IC50 [12] | IC50 [13] | IC50 [15] | other results
16 µg/mL (≈ 12.3 µM) | 32 µg/mL (≈ 24.7 µM) | 16 µg/mL (≈ 12.3 µM) | 0.06 µg/mL (≈ 0.0463 µM) | 32 µg/mL (≈ 24.7 µM) | 16 µg/mL (≈ 12.3 µM) | 16 µg/mL (≈ 12.3 µM) | 32 µg/mL (≈ 24.7 µM) | 0.5 µg/mL (≈ 0.386 µM) | 0.13 µg/mL (≈ 0.1 µM) | 16 µg/mL (≈ 12.3 µM) | 16 µg/mL (≈ 12.3 µM) | 16 µg/mL (≈ 12.3 µM) | CC(C)[C@H]1C(=O)O[C@H](C)[C@H](NC(=O)c2c3nc4c(C(=O)N[C@@H]5C(=O)N[C@H](C(C)C)C(=O)N6CCC[C@H]6C(=O)N(C)CC(=O)N(C)[C@@H](C(C)C)C(=O)O[C@@H]5C)ccc(Cl)c4oc-3c(Cl)c(=O)c2N)C(=O)N[C@H](C(C)C)C(=O)N2CCC[C@H]2C(=O)N(C)CC(=O)N1C | 2.8 µM | 11.1 µM | 51 µM | 17.3 µM | 0.2 µM | 1 µM | 4.6 µM | IC50 [20]: 4.5 µM
0.5 µg/mL (≈ 0.369 µM) | 1 µg/mL (≈ 0.739 µM) | 2 µg/mL (≈ 1.48 µM) | 0.06 µg/mL (≈ 0.0443 µM) | 1 µg/mL (≈ 0.739 µM) | 4 µg/mL (≈ 2.96 µM) | 0.5 µg/mL (≈ 0.369 µM) | 1 µg/mL (≈ 0.739 µM) | 0.25 µg/mL (≈ 0.185 µM) | 0.5 µg/mL (≈ 0.369 µM) | 1 µg/mL (≈ 0.739 µM) | 2 µg/mL (≈ 1.48 µM) | 1 µg/mL (≈ 0.739 µM) | CC(C)[C@H]1C(=O)O[C@H](C)[C@H](NC(=O)c2c3nc4c(C(=O)N[C@@H]5C(=O)N[C@H](C(C)C)C(=O)N6CCC[C@H]6C(=O)N(C)CC(=O)N(C)[C@@H](C(C)C)C(=O)O[C@@H]5C)ccc(I)c4oc-3cc(=O)c2N)C(=O)N[C@H](C(C)C)C(=O)N2CCC[C@H]2C(=O)N(C)CC(=O)N1C | 0.1 µM | 0.1 µM | 4.4 µM | 2 µM | 0.07 µM | 0.5 µM | 1.7 µM | IC50 [20]: 9 µM
2 µg/mL (≈ 1.48 µM) | 4 µg/mL (≈ 2.96 µM) | 4 µg/mL (≈ 2.96 µM) | 0.06 µg/mL (≈ 0.0443 µM) | 4 µg/mL (≈ 2.96 µM) | 8 µg/mL (≈ 5.91 µM) | 2 µg/mL (≈ 1.48 µM) | 4 µg/mL (≈ 2.96 µM) | 1 µg/mL (≈ 0.739 µM) | 2 µg/mL (≈ 1.48 µM) | 2 µg/mL (≈ 1.48 µM) | 4 µg/mL (≈ 2.96 µM) | 4 µg/mL (≈ 2.96 µM) | CC(C)[C@H]1C(=O)O[C@H](C)[C@H](NC(=O)c2c3nc4c(C(=O)N[C@@H]5C(=O)N[C@H](C(C)C)C(=O)N6CCC[C@H]6C(=O)N(C)CC(=O)N(C)[C@@H](C(C)C)C(=O)O[C@@H]5C)cccc4oc-3c(I)c(=O)c2N)C(=O)N[C@H](C(C)C)C(=O)N2CCC[C@H]2C(=O)N(C)CC(=O)N1C | 3.3 µM | 3.3 µM | 10 µM | 25.7 µM | 0.4 µM | 12.4 µM | 20.9 µM | IC50 [20]: 34 µM
8 µg/mL (≈ 6.34 µM) | 16 µg/mL (≈ 12.7 µM) | 16 µg/mL (≈ 12.7 µM) | 0.25 µg/mL (≈ 0.198 µM) | 16 µg/mL (≈ 12.7 µM) | 32 µg/mL (≈ 25.4 µM) | 8 µg/mL (≈ 6.34 µM) | 16 µg/mL (≈ 12.7 µM) | 4 µg/mL (≈ 3.17 µM) | 2 µg/mL (≈ 1.59 µM) | 8 µg/mL (≈ 6.34 µM) | 8 µg/mL (≈ 6.34 µM) | 8 µg/mL (≈ 6.34 µM) | CC(C)[C@H]1C(=O)O[C@H](C)[C@H](NC(=O)c2c3nc4c(C(=O)N[C@@H]5C(=O)N[C@H](C(C)C)C(=O)N6CCC[C@H]6C(=O)N(C)CC(=O)N(C)[C@@H](C(C)C)C(=O)O[C@@H]5C)cccc4oc-3c(Cl)c(=O)c2N)C(=O)N[C@H](C(C)C)C(=O)N2CCC[C@H]2C(=O)N(C)CC(=O)N1C | – | – | – | – | – | – | – | –
